The text below walks through data of ChEMBL document CHEMBL1201862, “PubChem BioAssay data set” (2004).

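Step 1: Grow cells in 96-well plates. Step 2: Expose to compound for 48 hours at 5 concentrations. Step 3: Interpolate endpoints linearly; if unreached, use highest concentration. GI50 = concentration required for 50% inhibition of growth.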 Active and inactive are the calls of the source. Rule as the data show it: active = GI50 up to about 1.1 µM and inactive = higher. Where only a bound is given, the exact number is not on record here.

Test systems include RXF 393; HT-29; UACC-257; MDA-MB-231; SNB-19; NCI-H23; CCRF-CEM; HCT-15; HCC 2998; M14; LOX IMVI; IGROV-1; SK-MEL-2; EKVX; MOLT-4; CAKI-1; OVCAR-5; K562; NCI/ADR-RES; Malme-3M.
Common to all, as to test: NCI-60 cell line screen, 48 h

As for `Cc1cn(C(C)OCCN2C(=O)c3ccccc3C2=O)c(=O)[nH]c1=O` (stereo unspecified), the GI50 with RXF 393, in the assay on HT-29, in the assay on UACC-257, in the assay with MDA-MB-231, with SNB-19 and with NCI-H23 was > 100 µM (inactive) each time. The GI50 with CCRF-CEM is > 100 µM (inactive); with HCT-15, above 100 µM; in the assay on HCC 2998 it was > 100 µM (inactive); with M14, > 100 µM (inactive); in the assay with LOX IMVI it was > 100 µM (inactive); in the assay with IGROV-1, > 100 µM (inactive). Further, the GI50 in the assay on SK-MEL-2, in the assay on EKVX, with MOLT-4, in the assay on CAKI-1, in the assay on OVCAR-5 and in the assay on K562 was > 100 µM (inactive) each time. Moreover, the GI50 with NCI/ADR-RES is > 100 µM (inactive).

`COC(=O)c1c2c(cc3c1CC1(C3)Cc3cc4c(c(C(=O)OC)c3C1)CCCC4)CCCC2`: the GI50 was > 100 µM (inactive) with RXF 393; > 100 µM (inactive) in the assay on HT-29; > 100 µM (inactive) in the assay on UACC-257; > 100 µM (inactive) in the assay on MDA-MB-231; > 100 µM (inactive) in the assay on NCI-H23; 30.5 µM (inactive) in the assay with CCRF-CEM. Besides, the GI50 with HCT-15 was above 100 µM; in the assay with HCC 2998 it was > 100 µM (inactive); in the assay on M14, > 100 µM (inactive); with LOX IMVI it was > 100 µM (inactive); with IGROV-1, > 100 µM (inactive); in the assay with SK-MEL-2, 1.55 µM (inactive). Moreover, the GI50 with Malme-3M was > 100 µM (inactive); in the assay on EKVX it was > 100 µM (inactive); in the assay with MOLT-4 it was 57.5 µM (inactive); in the assay with OVCAR-5, > 100 µM (inactive); in the assay on K562 it was 43 µM (inactive); in the assay on NCI/ADR-RES, > 100 µM (inactive).

Regarding `CC1=NN(c2ccccc2Cl)C2(C1)SCC(=O)N2c1nc2ccccc2s1` (stereo unspecified), the GI50 in the assay with RXF 393, in the assay with HT-29, in the assay with UACC-257, with MDA-MB-231, with SNB-19 and in the assay on NCI-H23 was > 100 µM (inactive) in each case. The GI50 with HCT-15 was above 100 µM; in the assay on HCC 2998, > 100 µM (inactive); in the assay with M14 it was > 100 µM (inactive); in the assay with LOX IMVI it was > 100 µM (inactive); in the assay on IGROV-1, > 100 µM (inactive); in the assay on SK-MEL-2, > 100 µM (inactive). Also, the GI50 in the assay on Malme-3M, in the assay with EKVX, with CAKI-1, with OVCAR-5, in the assay with K562 and with NCI/ADR-RES was > 100 µM (inactive) in each case.

Regarding `CC(=O)OC(COc1ccc2c(c1)[n+]([O-])nc(N)[n+]2[O-])CN1CCCCC1` (stereo unspecified), the GI50 is 16.5 µM (inactive) with RXF 393; 11.1 µM (inactive) in the assay on HT-29; 12.5 µM (inactive) in the assay with UACC-257; 5.61 µM (inactive) in the assay on MDA-MB-231; 22.3 µM (inactive) in the assay on SNB-19; 12.4 µM (inactive) in the assay on NCI-H23. In addition, the GI50 in the assay on CCRF-CEM is 6.1 µM (inactive); in the assay on HCT-15 it was 7.89 µM; with HCC 2998 it was 8.71 µM (inactive); in the assay on M14, 16.2 µM (inactive); with SK-MEL-2 it was 10.2 µM (inactive); in the assay with Malme-3M, 9.79 µM (inactive). Also, the GI50 with MOLT-4 was 2.49 µM (inactive); in the assay with CAKI-1, 17.4 µM (inactive); with OVCAR-5 it was 20.8 µM (inactive); in the assay on K562 it was 7.69 µM (inactive); in the assay with NCI/ADR-RES, 68.5 µM (inactive).

On to `OCC1OC(n2cnc3cccnc32)CC1O` (stereo unspecified), for which the GI50 in the assay on RXF 393, with HT-29, in the assay on UACC-257, with MDA-MB-231, with SNB-19 and in the assay with NCI-H23 was > 100 µM (inactive) each time. In addition, the GI50 was > 100 µM (inactive) in the assay with CCRF-CEM; above 100 µM with HCT-15; > 100 µM (inactive) with HCC 2998; > 100 µM (inactive) in the assay on M14; > 100 µM (inactive) in the assay on LOX IMVI; > 100 µM (inactive) in the assay on IGROV-1. Further, the GI50 with SK-MEL-2, with EKVX, in the assay on MOLT-4, with CAKI-1, with OVCAR-5 and with K562 was > 100 µM (inactive) each time. In the assay with NCI/ADR-RES, the GI50 is > 100 µM (inactive).

With `C[n+]1c2ccccc2n2c3ccccc3c(NCCCn3ccnc3)c(C#N)c21`, the GI50 with RXF 393 is 0.923 µM (active); in the assay with HT-29 it was 3.31 µM (inactive); in the assay with UACC-257, 3.85 µM (inactive); with MDA-MB-231, 2.65 µM (inactive); in the assay with SNB-19, 4.01 µM (inactive); with NCI-H23 it was 2.27 µM (inactive). For the same compound, the GI50 is 5.66 µM with HCT-15; 1.36 µM (inactive) in the assay on HCC 2998; 2.26 µM (inactive) in the assay on M14; 1.49 µM (inactive) in the assay on LOX IMVI; 1.62 µM (inactive) in the assay with SK-MEL-2; 1.9 µM (inactive) with Malme-3M. Also, the GI50 in the assay with EKVX was 4.78 µM (inactive); in the assay with MOLT-4 it was 0.533 µM (active); in the assay with CAKI-1, 10.5 µM (inactive); in the assay on OVCAR-5, 4.1 µM (inactive); in the assay with K562, 2.39 µM (inactive); with NCI/ADR-RES it was > 42 µM (inactive).

In the case of `CC(=O)O[C@H]1C[C@]2(C)C(CCC3O[C@@]32C)[C@@]2(CC(c3ccoc3)OC2O)[C@@H]1C` (stereo partly specified), the GI50 with RXF 393 was > 100 µM (inactive); with HT-29, 75.9 µM (inactive); in the assay with UACC-257 it was 63.4 µM (inactive); in the assay on MDA-MB-231, > 100 µM (inactive); in the assay on SNB-19, > 100 µM (inactive); in the assay on NCI-H23, 72.3 µM (inactive). Also, the GI50 with CCRF-CEM is 30.7 µM (inactive); with HCT-15, 37.8 µM; in the assay on HCC 2998, > 100 µM (inactive); in the assay on M14, > 100 µM (inactive); with LOX IMVI, 78.3 µM (inactive); in the assay on IGROV-1, > 100 µM (inactive). The GI50 is > 100 µM (inactive) with SK-MEL-2; > 100 µM (inactive) in the assay with EKVX; 29.6 µM (inactive) in the assay on MOLT-4; > 100 µM (inactive) in the assay with CAKI-1; > 100 µM (inactive) in the assay with OVCAR-5; 35.8 µM (inactive) in the assay with K562. The GI50 with NCI/ADR-RES was > 100 µM (inactive).

As to `CC(=O)CCCCC(=O)Nc1ccc(CC(NC(=O)OC(C)(C)C)C(=O)NCC(=O)OCc2ccccc2)cc1` (stereo unspecified), the GI50 was 25.2 µM (inactive) with RXF 393; 19.6 µM (inactive) in the assay with HT-29; 22.5 µM (inactive) in the assay with MDA-MB-231; 21.9 µM (inactive) in the assay with SNB-19; 30.8 µM (inactive) with NCI-H23; 62.8 µM with HCT-15. Also, the GI50 in the assay on HCC 2998 is 16.4 µM (inactive); in the assay on M14, 17.5 µM (inactive); in the assay with LOX IMVI, 15.1 µM (inactive); with IGROV-1 it was 33.3 µM (inactive); in the assay with Malme-3M, 19.3 µM (inactive); in the assay on EKVX, 57.3 µM (inactive). The GI50 is 24.1 µM (inactive) with MOLT-4; 15.7 µM (inactive) in the assay on CAKI-1; 63.4 µM (inactive) in the assay on OVCAR-5; 17.3 µM (inactive) in the assay on K562; > 100 µM (inactive) in the assay on NCI/ADR-RES.

For `c1ccc(C(Oc2noc3ccccc23)c2ccccc2)cc1`, the GI50 is 14.9 µM (inactive) with RXF 393; 36.7 µM (inactive) with HT-29; 29.5 µM (inactive) in the assay on UACC-257; 36.2 µM (inactive) with MDA-MB-231; 46 µM (inactive) in the assay with SNB-19; 41.7 µM (inactive) in the assay with NCI-H23. The GI50 is 15.9 µM (inactive) in the assay on CCRF-CEM; 31.3 µM in the assay with HCT-15; 21.7 µM (inactive) in the assay with HCC 2998; 25.2 µM (inactive) with M14; 38.7 µM (inactive) with LOX IMVI; 49.9 µM (inactive) in the assay on IGROV-1. The GI50 in the assay with Malme-3M was 67.5 µM (inactive); with EKVX it was 40.9 µM (inactive); in the assay on MOLT-4, 14.8 µM (inactive); in the assay on CAKI-1, 62.2 µM (inactive); in the assay on OVCAR-5, 51.4 µM (inactive); with K562, 23.8 µM (inactive). Besides, the GI50 in the assay on NCI/ADR-RES is 30.8 µM (inactive).

For the compound `O=C1N(c2ccccc2)N=C2c3ccncc3C3=NN(c4ccccc4)C(=O)C123` (stereo unspecified), the GI50 is > 100 µM (inactive) in the assay with RXF 393; > 39.6 µM (inactive) in the assay on HT-29; 27.1 µM (inactive) with UACC-257; > 100 µM (inactive) in the assay with MDA-MB-231; > 100 µM (inactive) in the assay with SNB-19; > 70 µM (inactive) in the assay on NCI-H23. The GI50 in the assay on CCRF-CEM is > 40.9 µM (inactive); in the assay on HCT-15, 13.2 µM; with HCC 2998, 6.68 µM (inactive); in the assay on LOX IMVI, 0.411 µM (active); with IGROV-1, > 51.9 µM (inactive); in the assay on SK-MEL-2, > 100 µM (inactive). Moreover, the GI50 was > 100 µM (inactive) with Malme-3M; > 100 µM (inactive) with EKVX; 0.504 µM (active) with MOLT-4; > 65.2 µM (inactive) with OVCAR-5; 0.252 µM (active) in the assay with K562; > 27.4 µM (inactive) in the assay on NCI/ADR-RES.

For the compound `CCCOc1ccc(/C=C/C2=[N+](CCO)CCO2)cc1`, the GI50 in the assay with RXF 393, with HT-29, in the assay with UACC-257, in the assay on MDA-MB-231, with SNB-19 and with NCI-H23 was > 100 µM (inactive) in each case. The GI50 in the assay with CCRF-CEM was > 100 µM (inactive); in the assay on HCT-15, above 100 µM; in the assay on HCC 2998, > 100 µM (inactive); in the assay with M14, > 100 µM (inactive); with IGROV-1, > 100 µM (inactive); in the assay on SK-MEL-2 it was > 100 µM (inactive). For the same compound, the GI50 with Malme-3M, in the assay on EKVX, in the assay on MOLT-4, in the assay with CAKI-1, in the assay with OVCAR-5 and with K562 was > 100 µM (inactive) throughout. In addition, the GI50 in the assay on NCI/ADR-RES is > 100 µM (inactive).
